Calls of active or inactive are those of the source.
What was measured:
[1] = system: H9c2; assay: cells; assay type: functional, cell-based; conditions: Rattus norvegicus, H9c2, Myocardium;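 note: confirmatory concentration-response retest of ultra-high-throughput screening hits for modulation of myocardial damage; cell death induced by hydrogen peroxide oxidative stress; compound pretreatment for 60 min then peroxide exposure for 2 h; potency is for protecting the cells against peroxide damage rather than for killing them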
[2] = HIV-1 Vif–A3G interaction blockers – biochemical, TR-FRET, GST-Vif 1-94, biotin-A3G peptide, dose response retest, primary screen (AID 1117319); assay type: functional;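 note: TR-FRET signal of purified GST-Vif binding a biotinylated A3G peptide; inhibitors lower the FRET signal by blocking Vif and A3G binding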
[3] = viability loss of HPDE-C7K cells – cell-based, fluorescence, HTS, primary screen (AID 431); assay type: functional; conditions: Homo sapiens
[4] = Luminescence Cell-Based Dose Retest to Confirm Inhibitors of Cancer Stem Cells. [Related pubchem assays (depositor defined):AID2717, AID2721]; assay type: functional, Homo sapiens; conditions: Homo sapiens
[5] = molecular target: T1, Streptokinase A (Streptococcus pyogenes serotype M1, UniProt P10520); assay: viability-normalized secreted streptokinase activity reduction – plasminogen activation absorbance, OD405, dose response (AID 1914); assay type: functional, Streptococcus pyogenes M1 GAS;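 note: secreted streptokinase activity via plasminogen activation per viability signal from cell pellet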
T1 sequence (P10520 whole entry): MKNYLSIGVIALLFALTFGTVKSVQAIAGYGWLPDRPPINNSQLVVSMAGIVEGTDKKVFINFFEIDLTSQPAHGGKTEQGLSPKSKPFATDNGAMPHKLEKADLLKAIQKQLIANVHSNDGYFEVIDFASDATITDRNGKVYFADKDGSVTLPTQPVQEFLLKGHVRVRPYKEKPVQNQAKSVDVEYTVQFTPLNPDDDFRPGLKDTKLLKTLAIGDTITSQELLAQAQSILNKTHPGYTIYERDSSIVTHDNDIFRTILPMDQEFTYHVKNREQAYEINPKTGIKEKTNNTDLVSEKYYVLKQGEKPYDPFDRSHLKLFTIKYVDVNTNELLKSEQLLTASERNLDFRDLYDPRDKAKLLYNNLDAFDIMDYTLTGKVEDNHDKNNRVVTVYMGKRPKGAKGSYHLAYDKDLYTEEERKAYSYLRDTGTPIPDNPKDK

[6] = system: Streptococcus sp. 'group A'; assay: Streptococcus pyogenes SK(-)GAS viability under kanamycin – luminescence, BacTiterGlo, confirmation, counter-screen for streptokinase expression inhibitor project, dose response (AID 1900); assay type: functional, organism-based
[7] = system: Streptococcus; assay: GAS UMAA2166 growth inhibition – luminescence, BacTiterGlo, counter-screen for streptokinase expression inhibitor project, dose response (AID 1915); assay type: functional, organism-based;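 note: potency for reduction of bacterial viability or growth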
[8] = HPDE-C7 pancreatic duct cell viability loss – fluorescence, HTS (AID 430); assay type: functional, cell-based; conditions: Homo sapiens
[9] = NIH3T3 cell viability loss – ATP luminescence, mouse fibroblasts, counter-screen, dose response (AID 2010); assay type: functional, cell-based;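 note: cells exposed to compound for about 90 hours before reading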
[10] = molecular target: Peroxisome proliferator-activated receptor gamma/Nuclear receptor coactivator 2 (Homo sapiens, UniProt P37231); assay type: functional;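 note: agonist potency for raising coactivator recruitment to the receptor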
Sequence of Peroxisome proliferator-activated receptor gamma/Nuclear receptor coactivator 2 (P37231 whole entry): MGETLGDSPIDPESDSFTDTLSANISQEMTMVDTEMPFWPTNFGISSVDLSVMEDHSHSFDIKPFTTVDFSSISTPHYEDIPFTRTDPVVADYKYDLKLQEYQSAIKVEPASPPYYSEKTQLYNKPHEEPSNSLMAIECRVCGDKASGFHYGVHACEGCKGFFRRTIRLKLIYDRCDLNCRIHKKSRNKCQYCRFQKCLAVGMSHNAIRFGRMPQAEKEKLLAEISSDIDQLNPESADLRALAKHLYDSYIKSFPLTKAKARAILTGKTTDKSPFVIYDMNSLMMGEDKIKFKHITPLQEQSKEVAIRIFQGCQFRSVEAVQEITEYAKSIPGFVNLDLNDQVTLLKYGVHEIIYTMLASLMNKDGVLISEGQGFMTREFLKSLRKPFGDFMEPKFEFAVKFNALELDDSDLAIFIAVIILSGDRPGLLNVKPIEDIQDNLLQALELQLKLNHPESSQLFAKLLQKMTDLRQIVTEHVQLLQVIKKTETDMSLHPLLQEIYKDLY
Sequence of Peroxisome proliferator-activated receptor gamma/Nuclear receptor coactivator 2 (Q15596 whole entry, further chain): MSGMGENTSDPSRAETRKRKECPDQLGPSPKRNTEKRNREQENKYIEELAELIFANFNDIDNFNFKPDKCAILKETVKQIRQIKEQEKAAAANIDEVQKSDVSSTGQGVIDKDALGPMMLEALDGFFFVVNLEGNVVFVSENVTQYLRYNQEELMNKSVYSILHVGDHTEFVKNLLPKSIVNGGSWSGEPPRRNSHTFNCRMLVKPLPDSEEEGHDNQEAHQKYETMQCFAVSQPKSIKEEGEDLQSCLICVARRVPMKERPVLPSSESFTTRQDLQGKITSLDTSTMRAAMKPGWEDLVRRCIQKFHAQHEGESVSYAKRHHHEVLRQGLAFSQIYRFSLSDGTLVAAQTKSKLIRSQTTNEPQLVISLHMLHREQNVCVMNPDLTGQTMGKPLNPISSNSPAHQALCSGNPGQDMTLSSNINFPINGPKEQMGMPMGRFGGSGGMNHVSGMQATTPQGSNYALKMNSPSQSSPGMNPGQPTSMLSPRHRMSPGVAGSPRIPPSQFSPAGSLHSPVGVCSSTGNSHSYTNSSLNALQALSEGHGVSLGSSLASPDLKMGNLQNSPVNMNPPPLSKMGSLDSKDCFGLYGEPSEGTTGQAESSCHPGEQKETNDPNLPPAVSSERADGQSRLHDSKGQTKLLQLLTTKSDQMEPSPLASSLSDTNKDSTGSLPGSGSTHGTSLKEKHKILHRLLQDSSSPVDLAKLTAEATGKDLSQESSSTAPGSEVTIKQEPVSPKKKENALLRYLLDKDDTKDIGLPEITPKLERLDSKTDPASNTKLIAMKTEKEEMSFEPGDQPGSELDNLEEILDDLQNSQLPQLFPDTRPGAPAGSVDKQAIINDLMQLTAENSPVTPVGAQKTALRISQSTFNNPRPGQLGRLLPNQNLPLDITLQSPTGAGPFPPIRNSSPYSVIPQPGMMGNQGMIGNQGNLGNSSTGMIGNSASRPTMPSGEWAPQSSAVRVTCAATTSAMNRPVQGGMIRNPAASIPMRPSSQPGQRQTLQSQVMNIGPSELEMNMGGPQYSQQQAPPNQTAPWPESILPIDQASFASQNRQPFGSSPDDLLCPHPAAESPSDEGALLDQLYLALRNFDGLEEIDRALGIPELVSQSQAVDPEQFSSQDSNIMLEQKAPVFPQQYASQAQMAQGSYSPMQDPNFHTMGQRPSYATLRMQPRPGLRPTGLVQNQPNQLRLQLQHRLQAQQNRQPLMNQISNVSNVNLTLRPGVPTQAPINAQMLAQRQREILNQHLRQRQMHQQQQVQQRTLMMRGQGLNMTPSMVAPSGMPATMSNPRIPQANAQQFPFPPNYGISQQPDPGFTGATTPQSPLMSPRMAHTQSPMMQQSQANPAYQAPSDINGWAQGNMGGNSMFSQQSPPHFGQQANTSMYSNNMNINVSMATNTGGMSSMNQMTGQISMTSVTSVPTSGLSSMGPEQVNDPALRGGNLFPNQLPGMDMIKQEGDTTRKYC

[11] = molecular target: Peroxisome proliferator-activated receptor gamma/Nuclear receptor coactivator 1 (Homo sapiens, UniProt P37231); assay type: functional;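 note: agonist potency as compounds enhance coactivator SRC-1 recruitment to PPARgamma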
Sequence of Peroxisome proliferator-activated receptor gamma/Nuclear receptor coactivator 1 (P37231 whole entry): as the sequence (P37231 whole entry) above
Sequence of Peroxisome proliferator-activated receptor gamma/Nuclear receptor coactivator 1 (Q15788 whole entry, further chain): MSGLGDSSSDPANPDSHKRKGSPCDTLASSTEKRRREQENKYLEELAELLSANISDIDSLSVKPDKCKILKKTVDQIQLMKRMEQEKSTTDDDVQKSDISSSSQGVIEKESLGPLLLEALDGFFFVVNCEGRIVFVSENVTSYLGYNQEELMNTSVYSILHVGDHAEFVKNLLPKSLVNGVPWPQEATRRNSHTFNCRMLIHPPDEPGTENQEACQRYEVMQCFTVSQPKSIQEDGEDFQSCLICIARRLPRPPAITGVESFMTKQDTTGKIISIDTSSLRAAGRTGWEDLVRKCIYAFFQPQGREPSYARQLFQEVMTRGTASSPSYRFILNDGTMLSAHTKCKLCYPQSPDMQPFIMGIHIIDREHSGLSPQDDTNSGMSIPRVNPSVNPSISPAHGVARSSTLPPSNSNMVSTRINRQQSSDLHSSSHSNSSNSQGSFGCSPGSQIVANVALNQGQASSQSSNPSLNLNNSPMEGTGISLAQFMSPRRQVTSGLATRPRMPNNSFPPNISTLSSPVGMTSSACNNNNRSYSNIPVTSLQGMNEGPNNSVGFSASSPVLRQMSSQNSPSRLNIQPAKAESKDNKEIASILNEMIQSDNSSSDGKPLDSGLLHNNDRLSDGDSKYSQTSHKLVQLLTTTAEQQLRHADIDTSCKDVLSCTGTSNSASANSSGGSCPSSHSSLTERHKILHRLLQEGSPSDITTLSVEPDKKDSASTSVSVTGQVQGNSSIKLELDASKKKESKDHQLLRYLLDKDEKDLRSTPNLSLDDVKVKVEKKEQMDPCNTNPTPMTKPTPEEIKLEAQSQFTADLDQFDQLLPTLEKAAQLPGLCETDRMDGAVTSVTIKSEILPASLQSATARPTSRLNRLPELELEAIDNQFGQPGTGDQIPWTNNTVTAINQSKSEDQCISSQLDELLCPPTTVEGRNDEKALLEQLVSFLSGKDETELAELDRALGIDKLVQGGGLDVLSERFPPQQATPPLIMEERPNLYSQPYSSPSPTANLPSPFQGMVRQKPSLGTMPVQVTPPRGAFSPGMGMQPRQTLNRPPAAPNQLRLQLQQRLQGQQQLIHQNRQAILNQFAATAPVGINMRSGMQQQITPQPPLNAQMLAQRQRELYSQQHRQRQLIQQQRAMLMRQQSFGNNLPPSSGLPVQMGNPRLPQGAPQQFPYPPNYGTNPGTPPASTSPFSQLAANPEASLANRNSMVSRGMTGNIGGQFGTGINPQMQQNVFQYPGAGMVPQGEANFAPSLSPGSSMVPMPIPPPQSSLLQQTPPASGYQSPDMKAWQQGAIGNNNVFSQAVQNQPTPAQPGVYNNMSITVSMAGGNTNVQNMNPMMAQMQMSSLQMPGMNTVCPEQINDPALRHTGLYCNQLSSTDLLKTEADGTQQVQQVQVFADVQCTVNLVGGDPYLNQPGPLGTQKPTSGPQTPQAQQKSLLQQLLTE

[12] = Trypanosoma cruzi growth suppression in host cells – NIH3T3 host cells, beta-gal luminescence, confirmation (AID 2044); assay type: functional, cell-based;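 note: intracellular parasites grown in NIH/3T3 mouse fibroblasts as host cells; luminescent beta-galactosidase reporter signal from transgenic T. cruzi replicating inside host cells; inhibitors lower the luminescence signal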
[13] = molecular target: Peroxisome proliferator-activated receptor gamma/Nuclear receptor coactivator 3 (Homo sapiens, UniProt P37231); assay type: functional;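 note: agonist potency for raising coactivator recruitment to the receptor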
[14] = molecular target: T2, Protein skinhead-1 (Caenorhabditis elegans, UniProt P34707); assay type: functional
T2 sequence (P34707 whole entry): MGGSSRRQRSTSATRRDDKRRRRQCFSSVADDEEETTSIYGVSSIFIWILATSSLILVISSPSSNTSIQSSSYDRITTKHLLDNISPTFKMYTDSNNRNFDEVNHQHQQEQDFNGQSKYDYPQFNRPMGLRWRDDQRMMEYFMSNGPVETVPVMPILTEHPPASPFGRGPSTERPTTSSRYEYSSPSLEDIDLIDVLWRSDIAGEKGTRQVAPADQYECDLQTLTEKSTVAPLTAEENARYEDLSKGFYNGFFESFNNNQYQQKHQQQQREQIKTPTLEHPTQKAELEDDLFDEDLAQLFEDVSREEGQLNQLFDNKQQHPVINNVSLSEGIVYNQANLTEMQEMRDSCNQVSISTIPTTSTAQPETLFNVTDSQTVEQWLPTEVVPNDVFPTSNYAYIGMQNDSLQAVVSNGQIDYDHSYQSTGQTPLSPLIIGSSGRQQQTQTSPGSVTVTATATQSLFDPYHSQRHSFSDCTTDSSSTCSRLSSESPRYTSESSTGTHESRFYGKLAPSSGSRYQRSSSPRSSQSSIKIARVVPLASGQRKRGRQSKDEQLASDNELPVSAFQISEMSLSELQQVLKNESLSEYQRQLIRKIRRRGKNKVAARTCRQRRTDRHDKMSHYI

[15] = molecular target: T3, DNA repair protein RAD52 homolog (Homo sapiens, UniProt P43351); assay type: functional, biochemical
T3 sequence (P43351 whole entry): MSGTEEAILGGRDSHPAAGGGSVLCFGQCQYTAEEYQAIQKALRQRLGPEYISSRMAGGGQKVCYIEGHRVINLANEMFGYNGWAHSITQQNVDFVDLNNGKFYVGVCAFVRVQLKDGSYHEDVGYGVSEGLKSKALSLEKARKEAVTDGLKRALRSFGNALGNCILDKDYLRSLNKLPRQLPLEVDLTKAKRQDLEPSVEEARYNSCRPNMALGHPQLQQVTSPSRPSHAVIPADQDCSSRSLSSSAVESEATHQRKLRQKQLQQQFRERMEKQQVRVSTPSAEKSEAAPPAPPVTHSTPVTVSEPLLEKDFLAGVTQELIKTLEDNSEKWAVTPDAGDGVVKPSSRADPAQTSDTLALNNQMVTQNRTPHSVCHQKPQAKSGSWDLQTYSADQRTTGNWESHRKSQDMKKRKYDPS

[16] = molecular target: T4, Aminopeptidase N (Plasmodium falciparum FcB1/Columbia, UniProt O96935); assay: malaria alanyl aminopeptidase activity blockers – biochemical, fluorogenic H-Leu-NHMec substrate, 1536-well (AID 1445); parameters: species or system Plasmodium falciparum 3D7, 3D7
T4 sequence (O96935 whole entry): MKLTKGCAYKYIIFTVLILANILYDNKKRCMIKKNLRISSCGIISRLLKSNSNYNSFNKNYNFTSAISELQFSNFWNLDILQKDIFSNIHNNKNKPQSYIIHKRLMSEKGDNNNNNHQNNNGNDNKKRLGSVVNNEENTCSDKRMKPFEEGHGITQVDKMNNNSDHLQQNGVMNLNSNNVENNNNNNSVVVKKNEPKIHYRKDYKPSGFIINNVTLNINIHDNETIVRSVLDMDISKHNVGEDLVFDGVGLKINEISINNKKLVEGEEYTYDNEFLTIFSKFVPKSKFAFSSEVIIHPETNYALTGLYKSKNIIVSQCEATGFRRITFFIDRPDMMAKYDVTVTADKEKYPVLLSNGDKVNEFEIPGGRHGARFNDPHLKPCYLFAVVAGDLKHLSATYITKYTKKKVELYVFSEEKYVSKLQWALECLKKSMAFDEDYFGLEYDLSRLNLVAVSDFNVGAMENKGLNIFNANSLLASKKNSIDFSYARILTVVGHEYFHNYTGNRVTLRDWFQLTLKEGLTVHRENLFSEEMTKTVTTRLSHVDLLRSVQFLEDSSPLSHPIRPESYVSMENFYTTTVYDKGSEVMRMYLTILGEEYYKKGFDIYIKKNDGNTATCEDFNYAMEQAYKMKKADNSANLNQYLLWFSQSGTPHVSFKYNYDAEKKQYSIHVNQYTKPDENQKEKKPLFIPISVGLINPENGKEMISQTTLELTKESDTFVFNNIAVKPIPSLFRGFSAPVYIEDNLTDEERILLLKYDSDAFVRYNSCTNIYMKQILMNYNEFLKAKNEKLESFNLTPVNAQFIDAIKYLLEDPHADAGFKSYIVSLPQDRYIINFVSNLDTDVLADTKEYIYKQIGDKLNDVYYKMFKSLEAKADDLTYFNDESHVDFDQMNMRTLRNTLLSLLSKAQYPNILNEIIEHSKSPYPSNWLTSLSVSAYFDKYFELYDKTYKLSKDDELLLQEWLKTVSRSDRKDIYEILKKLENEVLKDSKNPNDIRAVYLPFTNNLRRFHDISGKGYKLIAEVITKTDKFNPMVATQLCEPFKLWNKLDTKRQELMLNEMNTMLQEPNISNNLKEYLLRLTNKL

[17] = molecular target: T5, Fatty acid synthase (Homo sapiens, UniProt P49327); assay: inhibition of human FAS-TE enzyme activity – biochemical, kinetic fluorescence intensity, dose response (AID 624326); assay type: functional;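 note: rate of fluorescence rise from hydrolysis of a fluorogenic O-methyl fluorescein ester substrate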
[18] = molecular target: T5, Fatty acid synthase; assay: inhibition of human FAS-TE enzyme activity – biochemical, endpoint fluorescence intensity, uHTS hits, dose response (AID 624327); assay type: functional;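 note: fluorescence from hydrolysis of an O-methyl fluorescein acyl ester substrate by the enzyme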
[19] = HIV-1 AD8 envelope cell-cell fusion blockers – cherry-pick, dose response (AID 652062); assay type: functional, cell-based;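 note: luciferase signal from cell-cell fusion driven by HIV-1 clade B AD8 Env; potency is for inhibitors of fusion seen as a drop in luminescence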
[20] = molecular target: T6, Calpain-2 catalytic subunit (Sus scrofa, UniProt P43367); assay: m-calpain protease blockers, concentration series – biochemical, fluorogenic peptide substrate, dose response (AID 1420); assay type: functional
T6 sequence (P43367 whole entry): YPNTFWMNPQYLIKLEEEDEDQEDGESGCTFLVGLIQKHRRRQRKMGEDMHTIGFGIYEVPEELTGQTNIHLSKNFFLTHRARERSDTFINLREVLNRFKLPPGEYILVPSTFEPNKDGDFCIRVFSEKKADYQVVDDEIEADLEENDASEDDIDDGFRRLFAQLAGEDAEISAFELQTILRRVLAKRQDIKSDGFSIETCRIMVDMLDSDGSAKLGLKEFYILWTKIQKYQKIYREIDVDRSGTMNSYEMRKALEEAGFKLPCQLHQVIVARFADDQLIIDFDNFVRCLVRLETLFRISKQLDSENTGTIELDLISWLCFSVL

Cc1ccc2nsnc2c1S(=O)(=O)N(Cc1ccco1)Cc1cc2cccc(C)c2nc1O
IC50 [1]: > 79 µM (inactive) | IC50 [2]: > 100 µM (active)

CC(OC(=O)c1ccc([N+](=O)[O-])o1)C(=O)NC1CCCCC1C (configuration not stated)
IC50 [2]: > 100 µM (active)

Cc1cccc(N2CCN(C(=O)c3cc4n(n3)C(C(F)(F)F)CC(c3ccco3)N4)CC2)c1C (configuration not stated)
EC50 [3]: > 20 µM (not active) | AC50 [4]: 1.84 µM (active) | EC50 [5]: 16.7 µM (active) | EC50 [6]: 3.02 µM (active) | EC50 [7]: 29.1 µM (active) | EC50 [8]: > 20 µM (not active)

O=C(Nc1nc(-c2ccc(S(=O)(=O)N3CCCCCC3)cc2)cs1)c1cccs1
EC50 [9]: 6.61 µM (active) | EC50 [10]: 14.6 µM (not active) | EC50 [11]: 16.5 µM (not active) | EC50 [12]: 2.33 µM (active) | EC50 [13]: 17.4 µM (not active)

Nc1c(C(=O)NCCc2ccccc2)c2nc3ccccc3nc2n1CCN1CCOCC1
EC50 [3]: 10.4 µM (active) | EC50 [8]: 9.43 µM (active)

CCCCCCn1c(N2CCN(c3cccc(Cl)c3)CC2)nc2c1c(=O)[nH]c(=O)n2C
EC50 [3]: > 20 µM (not active) | IC50 [14]: > 100 µM (inactive) | EC50 [8]: > 20 µM (not active)

COc1cccc(C2=NC(C)(C)NC(c3ccccc3O)C2)c1 (configuration not stated)
EC50 [3]: 12.5 µM (active) | EC50 [8]: 11.7 µM (active)

O=C(CSc1ncnc2c1nnn2-c1ccc(F)cc1)NCc1ccco1
EC50 [10]: > 79.4 µM (not active) | EC50 [11]: > 79.4 µM (not active) | EC50 [13]: > 79.4 µM (not active)

CCC1CCC2(CC1)NC(=O)N(CC(=O)Nc1ccc(OC)c(Cl)c1)C2=O (configuration not stated)
IC50 [2]: > 100 µM (active)

CCN1CCN(Cc2ccc(NC(=O)c3ccc(C)c(NC(=O)c4csc(-c5ccncc5)n4)c3)cc2C(F)(F)F)CC1
AC50 [15]: 33.6 µM (active)

CC1(C)OC2OC(C(=O)N/N=C/c3cc(Br)ccc3O)C3OC(C)(C)OC3C2O1 (configuration not stated)
IC50 [16]: 51.7 µM (active)

c1ccc(CN2CCN(c3nc(-c4ccccc4)nc(-n4ccnc4)n3)CC2)cc1
EC50 [3]: 11.9 µM (active) | EC50 [9]: > 60 µM (not active) | EC50 [12]: 2.31 µM (active) | EC50 [8]: 9.94 µM (active)

C=CCN1C(=O)/C(=c2\sc3nc(=O)c(Cc4ccccc4Cl)nn3c2=O)c2ccccc21
IC50 [16]: 57.4 µM (active)

Cc1ccc(NC(=O)CN(C)C(=S)NC2CC2)cc1
EC50 [10]: > 79.4 µM (not active) | EC50 [11]: > 79.4 µM (not active) | EC50 [13]: > 79.4 µM (not active)

Cc1ccc2c(c1)c1nnc(SCC(=O)Nc3cccc(Cl)c3C)nc1n2CC(=O)O
IC50 [16]: 8.42 µM (active)

CN(C)CCCNC(=O)C[C@H]1C[C@H](C(=O)N2CCOCC2)[C@@]2(CCC3CCCC3)c3[nH]c4cc(-c5ccco5)ccc4c3CCN2C1=O
IC50 [17]: 5.89 µM (active) | AC50 [15]: 11.2 µM (active) | IC50 [18]: 5.74 µM (active)

O=C(COc1ccc(-n2cnnn2)cc1)Nc1ccc(F)c(F)c1
AC50 [19]: 1.42 µM (active)

CCOC(=O)c1c(C)[nH]c(C)c1C(=O)COC(=O)c1cccc(S(=O)(=O)NC)c1
IC50 [2]: > 100 µM (active)

Clc1ccc(-c2nnnn2-c2ccc(Cl)c(Cl)c2)cc1Cl
AC50 [4]: 3.97 µM (active) | EC50 [5]: 8.28 µM (active) | IC50 [20]: < 0.4 µM (not active) | EC50 [6]: 9.57 µM (active) | EC50 [7]: > 150 µM (not active) | IC50 [2]: > 100 µM (active)

O=C(CCC1CCCN(C(=O)C2=CCCCC2)C1)N1CCN(c2ccccn2)CC1 (configuration not stated)
EC50 [10]: > 79.4 µM (not active) | EC50 [11]: > 79.4 µM (not active) | EC50 [13]: > 79.4 µM (not active)

O=C1Nc2cc(Cl)ccc2C1(N1CCNCC1)C(F)(F)F (configuration not stated)
EC50 [3]: > 20 µM (not active) | EC50 [8]: > 20 µM (not active)
